Reference: PubChem BioAssay (NCI)
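GI50: concentration for 50% inhibition of growth. At the TGI there is no net growth.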

What was measured:
Assay in all cases: NCI tumour cell line growth inhibition, 384-well format
786-0 renal = tested on: 786-0 renal
A498 renal = tested on: A498 renal
A549 NSCLC = tested on: A549 NSCLC
ACHN renal = tested on: ACHN renal
BT-549 breast = tested on: BT-549 breast
CAKI-1 renal = tested on: CAKI-1 renal
CCRF-CEM leukemia = tested on: CCRF-CEM leukemia
COLO 205 colon = tested on: COLO 205 colon
DU-145 prostate = tested on: DU-145 prostate
EKVX NSCLC = tested on: EKVX NSCLC
HCT-116 colon = tested on: HCT-116 colon
HCT-15 colon = tested on: HCT-15 colon
HL-60(TB) leukemia = tested on: HL-60(TB) leukemia
HOP-62 NSCLC = tested on: HOP-62 NSCLC
HOP-92 NSCLC = tested on: HOP-92 NSCLC
HS 578T breast = tested on: HS 578T breast
HT29 colon = tested on: HT29 colon
IGROV1 ovarian = tested on: IGROV1 ovarian
K-562 leukemia = tested on: K-562 leukemia
KM12 colon = tested on: KM12 colon
LOX IMVI melanoma = tested on: LOX IMVI melanoma
M14 melanoma = tested on: M14 melanoma
MALME-3M melanoma = tested on: MALME-3M melanoma
MCF7 breast = tested on: MCF7 breast
MDA-MB-231 breast = tested on: MDA-MB-231 breast
MDA-MB-435 melanoma = tested on: MDA-MB-435 melanoma
MDA-MB-468 breast = tested on: MDA-MB-468 breast
MOLT-4 leukemia = tested on: MOLT-4 leukemia
NCI-H226 lung = tested on: NCI-H226 lung
NCI-H23 lung = tested on: NCI-H23 lung
NCI-H322M lung = tested on: NCI-H322M lung
NCI-H460 NSCLC = tested on: NCI-H460 NSCLC
NCI-H522 lung = tested on: NCI-H522 lung
NCI/ADR-RES ovarian = tested on: NCI/ADR-RES ovarian
OVCAR-3 ovarian = tested on: OVCAR-3 ovarian
OVCAR-4 ovarian = tested on: OVCAR-4 ovarian
OVCAR-5 ovarian = tested on: OVCAR-5 ovarian
PC-3 prostate = tested on: PC-3 prostate
RPMI-8226 leukemia = tested on: RPMI-8226 leukemia
RXF 393 renal = tested on: RXF 393 renal
SF-268 CNS = tested on: SF-268 CNS
SF-295 CNS = tested on: SF-295 CNS
SF-539 CNS = tested on: SF-539 CNS
SK-MEL-2 melanoma = tested on: SK-MEL-2 melanoma
SK-MEL-28 melanoma = tested on: SK-MEL-28 melanoma
SK-MEL-5 melanoma = tested on: SK-MEL-5 melanoma
SK-OV-3 ovarian = tested on: SK-OV-3 ovarian
SN12C renal = tested on: SN12C renal
SNB-19 CNS = tested on: SNB-19 CNS
SNB-75 CNS = tested on: SNB-75 CNS
SR leukemia = tested on: SR leukemia
SW-620 colon = tested on: SW-620 colon
T-47D breast = tested on: T-47D breast
TK-10 renal = tested on: TK-10 renal
U251 glioblastoma = tested on: U251 glioblastoma
UACC-257 melanoma = tested on: UACC-257 melanoma
UACC-62 melanoma = tested on: UACC-62 melanoma
UO-31 renal = tested on: UO-31 renal

Q: `Cn1cc(-c2ccc3nnc(Sc4ccc5ncccc5c4)n3n2)cn1` was tested. Which GI50 ([…]-0 renal) did it give?
A: > 100 µM

Q: And the TGI (786-0 renal)?
A: > 100 µM

Q: And the GI50 (A498 renal)?
A: > 100 µM

Q: What about the TGI (A498 renal) of the same compound?
A: > 100 µM

Q: And the GI50 (A549 NSCLC)?
A: > 100 µM

Q: What about the TGI (A549 NSCLC) of the same compound?
A: > 100 µM

Q: And the GI50 (ACHN renal)?
A: > 100 µM

Q: And the TGI (ACHN renal)?
A: > 100 µM

Q: What about the GI50 (BT-549 breast) of the same compound?
A: > 100 µM

Q: And the TGI (BT-549 breast)?
A: > 100 µM

Q: What about the GI50 (CAKI-1 renal) of the same compound?
A: > 100 µM

Q: What about the TGI (CAKI-1 renal) of the same compound?
A: > 100 µM

Q: And the GI50 (CCRF-CEM leukemia)?
A: > 100 µM

Q: What about the TGI (CCRF-CEM leukemia) of the same compound?
A: > 100 µM

Q: And the GI50 (COLO 205 colon)?
A: > 100 µM

Q: What about the TGI (COLO 205 colon) of the same compound?
A: > 100 µM

Q: And the GI50 (DU-145 prostate)?
A: > 100 µM

Q: What about the TGI (DU-145 prostate) of the same compound?
A: > 100 µM

Q: And the GI50 (EKVX NSCLC)?
A: > 100 µM

Q: And the TGI (EKVX NSCLC)?
A: > 100 µM

Q: What about the GI50 (HCT-116 colon) of the same compound?
A: > 100 µM

Q: What about the TGI (HCT-116 colon) of the same compound?
A: > 100 µM

Q: And the GI50 (HCT-15 colon)?
A: > 100 µM

Q: And the TGI (HCT-15 colon)?
A: > 100 µM

Q: What about the GI50 (HL-60(TB) leukemia) of the same compound?
A: > 100 µM

Q: What about the TGI (HL-60(TB) leukemia) of the same compound?
A: > 100 µM

Q: What about the GI50 (HOP-62 NSCLC) of the same compound?
A: > 100 µM

Q: What about the TGI (HOP-62 NSCLC) of the same compound?
A: > 100 µM

Q: And the GI50 (HOP-92 NSCLC)?
A: > 100 µM

Q: What about the TGI (HOP-92 NSCLC) of the same compound?
A: > 100 µM

Q: What about the GI50 (HS 578T breast) of the same compound?
A: 61.6 µM

Q: What about the TGI (HS 578T breast) of the same compound?
A: > 100 µM

Q: What about the GI50 (HT29 colon) of the same compound?
A: > 100 µM

Q: And the TGI (HT29 colon)?
A: > 100 µM

Q: What about the GI50 (IGROV1 ovarian) of the same compound?
A: > 100 µM

Q: And the TGI (IGROV1 ovarian)?
A: > 100 µM

Q: What about the GI50 (K-562 leukemia) of the same compound?
A: > 100 µM

Q: And the TGI (K-562 leukemia)?
A: > 100 µM

Q: And the GI50 (KM12 colon)?
A: > 100 µM

Q: What about the TGI (KM12 colon) of the same compound?
A: > 100 µM

Q: What about the GI50 (LOX IMVI melanoma) of the same compound?
A: > 100 µM

Q: What about the TGI (LOX IMVI melanoma) of the same compound?
A: > 100 µM

Q: And the GI50 (M14 melanoma)?
A: > 100 µM

Q: What about the TGI (M14 melanoma) of the same compound?
A: > 100 µM

Q: And the GI50 (MALME-3M melanoma)?
A: > 100 µM

Q: And the TGI (MALME-3M melanoma)?
A: > 100 µM

Q: What about the GI50 (MCF7 breast) of the same compound?
A: > 100 µM

Q: And the TGI (MCF7 breast)?
A: > 100 µM

Q: What about the GI50 (MDA-MB-231 breast) of the same compound?
A: > 100 µM

Q: And the TGI (MDA-MB-231 breast)?
A: > 100 µM

Q: What about the GI50 (MDA-MB-435 melanoma) of the same compound?
A: > 100 µM

Q: And the TGI (MDA-MB-435 melanoma)?
A: > 100 µM

Q: What about the GI50 (MDA-MB-468 breast) of the same compound?
A: 13.8 µM

Q: What about the TGI (MDA-MB-468 breast) of the same compound?
A: 48.4 µM

Q: And the GI50 (MOLT-4 leukemia)?
A: > 100 µM

Q: What about the TGI (MOLT-4 leukemia) of the same compound?
A: > 100 µM

Q: What about the GI50 (NCI-H226 lung) of the same compound?
A: > 100 µM

Q: What about the TGI (NCI-H226 lung) of the same compound?
A: > 100 µM

Q: What about the GI50 (NCI-H23 lung) of the same compound?
A: > 100 µM

Q: What about the TGI (NCI-H23 lung) of the same compound?
A: > 100 µM

Q: And the GI50 (NCI-H322M lung)?
A: > 100 µM

Q: And the TGI (NCI-H322M lung)?
A: > 100 µM

Q: What about the GI50 (NCI-H460 NSCLC) of the same compound?
A: > 100 µM

Q: What about the TGI (NCI-H460 NSCLC) of the same compound?
A: > 100 µM

Q: And the GI50 (NCI-H522 lung)?
A: > 100 µM

Q: And the TGI (NCI-H522 lung)?
A: > 100 µM

Q: And the GI50 (NCI/ADR-RES ovarian)?
A: > 100 µM

Q: What about the TGI (NCI/ADR-RES ovarian) of the same compound?
A: > 100 µM

Q: And the GI50 (OVCAR-3 ovarian)?
A: > 100 µM

Q: What about the TGI (OVCAR-3 ovarian) of the same compound?
A: > 100 µM

Q: What about the GI50 (OVCAR-4 ovarian) of the same compound?
A: > 100 µM

Q: What about the TGI (OVCAR-4 ovarian) of the same compound?
A: > 100 µM

Q: And the GI50 (OVCAR-5 ovarian)?
A: > 100 µM

Q: What about the TGI (OVCAR-5 ovarian) of the same compound?
A: > 100 µM

Q: What about the GI50 (PC-3 prostate) of the same compound?
A: > 100 µM

Q: And the TGI (PC-3 prostate)?
A: > 100 µM

Q: What about the GI50 (RPMI-8226 leukemia) of the same compound?
A: > 100 µM

Q: And the TGI (RPMI-8226 leukemia)?
A: > 100 µM

Q: What about the GI50 (RXF 393 renal) of the same compound?
A: 38.2 µM

Q: What about the TGI (RXF 393 renal) of the same compound?
A: > 100 µM

Q: And the GI50 (SF-268 CNS)?
A: > 100 µM

Q: And the TGI (SF-268 CNS)?
A: > 100 µM

Q: What about the GI50 (SF-295 CNS) of the same compound?
A: 46.3 µM

Q: What about the TGI (SF-295 CNS) of the same compound?
A: > 100 µM

Q: What about the GI50 (SF-539 CNS) of the same compound?
A: > 100 µM

Q: And the TGI (SF-539 CNS)?
A: > 100 µM

Q: What about the GI50 (SK-MEL-2 melanoma) of the same compound?
A: > 100 µM

Q: And the TGI (SK-MEL-2 melanoma)?
A: > 100 µM

Q: And the GI50 (SK-MEL-28 melanoma)?
A: > 100 µM

Q: And the TGI (SK-MEL-28 melanoma)?
A: > 100 µM

Q: What about the GI50 (SK-MEL-5 melanoma) of the same compound?
A: > 100 µM

Q: What about the TGI (SK-MEL-5 melanoma) of the same compound?
A: > 100 µM

Q: What about the GI50 (SK-OV-3 ovarian) of the same compound?
A: > 100 µM

Q: And the TGI (SK-OV-3 ovarian)?
A: > 100 µM

Q: What about the GI50 (SN12C renal) of the same compound?
A: > 100 µM

Q: What about the TGI (SN12C renal) of the same compound?
A: > 100 µM

Q: What about the GI50 (SNB-19 CNS) of the same compound?
A: > 100 µM

Q: What about the TGI (SNB-19 CNS) of the same compound?
A: > 100 µM

Q: And the GI50 (SNB-75 CNS)?
A: > 100 µM

Q: What about the TGI (SNB-75 CNS) of the same compound?
A: > 100 µM

Q: What about the GI50 (SR leukemia) of the same compound?
A: 27.2 µM

Q: And the TGI (SR leukemia)?
A: > 100 µM

Q: What about the GI50 (SW-620 colon) of the same compound?
A: > 100 µM

Q: And the TGI (SW-620 colon)?
A: > 100 µM

Q: What about the GI50 (T-47D breast) of the same compound?
A: > 100 µM

Q: And the TGI (T-47D breast)?
A: > 100 µM

Q: And the GI50 (TK-10 renal)?
A: > 100 µM

Q: What about the TGI (TK-10 renal) of the same compound?
A: > 100 µM

Q: What about the GI50 (U251 glioblastoma) of the same compound?
A: > 100 µM

Q: And the TGI (U251 glioblastoma)?
A: > 100 µM

Q: What about the GI50 (UACC-257 melanoma) of the same compound?
A: > 100 µM

Q: What about the TGI (UACC-257 melanoma) of the same compound?
A: > 100 µM

Q: And the GI50 (UACC-62 melanoma)?
A: > 100 µM

Q: And the TGI (UACC-62 melanoma)?
A: > 100 µM

Q: What about the GI50 (UO-31 renal) of the same compound?
A: > 100 µM

Q: And the TGI (UO-31 renal)?
A: > 100 µM
